Reference: patent US20250122171A1, “Substituted Amine Compounds, Compositions and Methods of Use” (Deep Apple Therapeutics, Inc., priority 2023, published 2025)

Tests used:
Assay type in all cases: cell-based
[1] = test system: LAD-2 cells; assay: LAD2 Degranulation Assay (Protocol 1), β-hexosaminidase release; details: Homo sapiens, 1 μM Cortistatin-14, 30 minute preincubation, top concentration 3 μM
Procedure: (§1) LAD-2 cells were maintained at 37° C. with 5% CO2 and grown in complete StemPro-34 media supplemented with 1% L-Glutamate, 1% penicillin/streptomycin, and 250 ng/mL human SCF.
On the day of experiment, cells were collected by centrifugation and seeded in 384-well assay plates, at 4,000 cells per well in 10 μl freshly made assay buffer (10 mM HEPES, 130 mM NaCl, 5 mM KCl, 1.8 mM CaCl2), 1.0 mM MgCl2, 5.6 mM glucose, 0.1% BSA, pH=7.40). For dose-response assays, compounds solubilized in 100% DMSO at 30 mM were serially diluted (1:3) first in 100% DMSO, and 2 intermediate dilutions with assay buffer were used to establish a final top concentration of 3 μM (in assay plate). Final DMSO concentration was kept constant at 0.1% across plates for all assays. Cortistatin-14 at 30 mM stock concentration was solubilized in HBSS+0.1% BSA, stored at −20° C. in 5 μl aliquots and discarded after one freeze-thaw cycle. Final concentration of agonist used in both dose-response and single point assays was 1 μM, prepared in assay buffer.
(§2) Antagonist equilibrium was established with 30 minute preincubation, followed by no wash, direct addition, and stimulation of agonist for 30 minutes at 37° C. For detection of β-hexosaminidase activity, assay plates were centrifuged and 5 μl of cell-free supernatant from each assay well was transferred to a black-walled black-bottomed 384-well plate. Substrate solution (1 mM 4-Methylumbelliferyl N-acetyl-β-D-glucosaminide in citrate buffer, pH=4.5, 15 μl) was added to each well and plates were incubated for 1 hour at 37° C. The plate was read on an EnVision XCite plate reader for umbelliferone fluorescence intensity (λex=355 nm, λem=460 nm). Background-subtracted data was analyzed using either GraphPad Prism or a custom Python script to calculate IC50 using either Log[Antagonist] vs. response (4 parameter) nonlinear regression (dose-response assays).

[2] = target: T1, human MRGPRX2 (Homo sapiens, UniProt Q96LB1); assay: MRGPRX2 Activity Assay (IP-1 HTRF, antagonist mode); details: FlpIn TRex-MRGPRX2-HEK293 cells; versus 1 μM Cortistatin-14 agonist; 30 minutes preincubation
T1 construct: expressed in transfected cells; host or cells: FlpIn TRex HEK293 (TRex-MRGPRX2-HEK), doxycycline-induced
T1 sequence (Q96LB1 1-330): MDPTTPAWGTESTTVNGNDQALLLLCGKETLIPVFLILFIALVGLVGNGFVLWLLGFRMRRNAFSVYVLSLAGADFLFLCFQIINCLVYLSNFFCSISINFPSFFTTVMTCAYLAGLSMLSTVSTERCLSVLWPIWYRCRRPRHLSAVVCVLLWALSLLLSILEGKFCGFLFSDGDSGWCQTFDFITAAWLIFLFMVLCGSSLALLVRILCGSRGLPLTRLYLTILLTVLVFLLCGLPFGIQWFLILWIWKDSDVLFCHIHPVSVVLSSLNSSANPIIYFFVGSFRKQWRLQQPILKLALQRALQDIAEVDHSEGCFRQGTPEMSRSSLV
Method in brief: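 Doxycycline-induced (100 ng/mL, 18-24 h) TRex HEK293 cells stably expressing human MRGPRX2, in HBSS/20 mM HEPES/0.1% BSA/10 mM LiCl. Compounds (top final 30 uM, 1% DMSO) preincubated 30 min, then agonist stimulation 1 h at 37° C without wash. IP-1 accumulation read by HTRF; IC50 from 4-parameter fit.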

[3] = test system: LAD-2 cells; assay: LAD2 Degranulation Assay (Protocol 2), β-hexosaminidase release; details: Homo sapiens, 0.5 μM Cortistatin-14, 2 h preincubation, cells without SCF 18-24 hours, top concentration 3 μM
Procedure: as §1
18-24 hours prior to experiment, LAD-2 cells were collected and transferred to growth media without SCF. On the day of experiment, cells were collected by centrifugation and seeded in 384-well assay plates, at 4,000 cells per well in 17 μl freshly made assay buffer (10 mM HEPES, 137 mM NaCl, 2.7 mM KCl, 1.8 mM CaCl2), 1.0 mM MgCl2, 5.6 mM glucose, 0.4 mM NaH2PO4, 0.04% BSA, pH=7.40). For dose-response assays, compounds solubilized in 100% DMSO at 30 mM were serially diluted (1:3) first in 100% DMSO, and 2 intermediate dilutions with assay buffer were used to establish a final top concentration of 3 μM (in assay plate). For single point assays, dilution of DMSO stocks to 250 nM (in assay plate) was performed in the same manner as described for dose-response assays. Final DMSO concentration was kept constant at 0.1% across plates for all assays. Cortistatin-14 at 30 mM stock concentration was solubilized in HBSS+0.1% BSA, stored at −20° C. in 5 μl aliquots and discarded after one freeze-thaw cycle. Final concentration of agonist used in both dose-response and single point assays was 0.5 μM, prepared in assay buffer.
as §2, with “with 2 h” for “with 30 minute”, “[…])” for “15 μl)”, “(dose-response assays) or % control β-hexosaminidase activity (single point” for “(dose-response”

SMILES	IC50 [1]	IC50 [2]	IC50 [3]
C[C@H](C(=O)Nc1cn(Cc2cc(F)cc(F)c2)c(C(F)(F)F)n1)N1CCC(F)(F)[C@@H](c2cc[n+]([O-])cc2)C1 (single isomer, unassigned) [Compound 26]	40 nM	13 nM	–
C[C@@H](C(=O)Nc1cn(Cc2cc(F)ccc2Cl)cn1)N1CCC(F)(F)[C@@H](c2cc[n+]([O-])cc2)C1 [Compound 35, 4-((S)-1-((S)-1-((1-(2-chloro-5-fluorobenzyl)-1H-imidazol-4-yl)amino)-1-oxopropan-2-yl)-4,4-difluoropiperidin-3-yl)pyridine 1-oxide]	57 nM	7.9 nM	–
Cc1nc(NC(=O)[C@H](C)N2CCC(F)(F)[C@@H](c3cc[n+]([O-])cc3)C2)cn1Cc1cc(F)cc(F)c1 (single isomer, unassigned) [Compound 19]	1.6 nM	2.1 nM	–
C[C@H](C(=O)Nc1cn(Cc2cc(F)cc(F)c2)cn1)N1CCC(F)(F)[C@@H](c2ccc(=O)[nH]c2)C1 (single isomer, unassigned) [Compound 55]	22 nM	4 nM	–
C[C@@H](C(=O)Nc1cn(Cc2cc(F)cc(F)c2F)cn1)N1CCC(F)(F)[C@@H](c2cc[n+]([O-])cc2)C1 [Compound 39, 4-((S)-4,4-difluoro-1-((S)-1-oxo-1-((1-(2,3,5-trifluorobenzyl)-1H-imidazol-4-yl)amino)propan-2-yl)piperidin-3-yl)pyridine 1-oxide]	3.3 nM	4.1 nM	–
C[C@@H](C(=O)Nc1cn(Cc2ccc(F)cc2F)c(C(F)(F)F)n1)N1CCC(F)(F)[C@@H](c2cc[n+]([O-])cc2)C1 (single isomer, unassigned) [Compound 7]	> 3000 nM	45 nM	–
Cc1nc(NC(=O)[C@H](C)N2CCC(F)(F)CC2)cn1Cc1cc(F)cc(F)c1 (single isomer, unassigned) [Compound 21]	0.7 nM	3.3 nM	–
C[C@@H](C(=O)Nc1cn(Cc2cc(F)cc(C#N)c2)cn1)N1CCC(F)(F)[C@@H](c2cc[n+]([O-])cc2)C1 [Compound 53, 4-((S)-1-((S)-1-((1-(3-cyano-5-fluorobenzyl)-1H-imidazol-4-yl)amino)-1-oxopropan-2-yl)-4,4-difluoropiperidin-3-yl)pyridine 1-oxide]	1020 nM	783 nM	–
C[C@@H](C(=O)Nc1cn(Cc2cc(F)cc(F)c2)c(Cl)n1)N1CCC(F)(F)[C@@H](c2cc[n+]([O-])cc2)C1 (single isomer, unassigned) [Compound 80]	> 3000 nM	755 nM	–
C[C@H](C(=O)Nc1cn(Cc2cc(F)cc(F)c2)c(C(F)F)n1)N1CCC(F)(F)[C@@H](c2cc[n+]([O-])cc2)C1 (single isomer, unassigned) [Compound 83]	13 nM	8 nM	12 nM
C[C@H](C(=O)Nc1cn(Cc2cc(F)cc(F)c2)c(C(F)(F)F)n1)N1CCC(F)(F)[C@H](c2ccc(=O)[nH]c2)C1 (single isomer, unassigned) [Compound 77]	51 nM	18 nM	–
C[C@H](C(=O)Nc1cn(Cc2cc(F)cc(F)c2)cn1)N1CCC(F)(F)[C@@H](c2ccc(=O)n(C)c2)C1 (single isomer, unassigned) [Compound 68]	30 nM	23 nM	–
C[C@@H](C(=O)Nc1noc(Cc2cc(F)cc(F)c2)n1)N1CCC(F)(F)[C@@H](c2cc[n+]([O-])cc2)C1 (single isomer, unassigned) [Compound 56]	976 nM	76 nM	–
Cc1nc(NC(=O)[C@H](C)N2CCC(F)(F)[C@@H](c3cc[n+]([O-])cc3)C2)cn1Cc1ccc(F)cc1F (single isomer, unassigned) [Compound 9]	28 nM	17 nM	–
C[C@H](C(=O)Nc1coc(Cc2cc(F)cc(F)c2)n1)N1CCC(F)(F)[C@@H](c2cc[n+]([O-])cc2)C1 (single isomer, unassigned) [Compound 28]	19 nM	2.1 nM	–
O=C(Nc1cn(Cc2cc(F)cc(F)c2)cn1)[C@@H]1C(F)(F)C12CCC2 [Compound 29, (R)—N-(1-(3,5-difluorobenzyl)-1H-imidazol-4-yl)-2,2-difluorospiro[2.3]hexane-1-carboxamide]	212 nM	220 nM	–
C[C@@H](C(=O)Nc1cn(Cc2cc(F)c(F)c(F)c2)cn1)N1CCC(F)(F)[C@@H](c2cc[n+]([O-])cc2)C1 [Compound 34, 4-((S)-4,4-difluoro-1-((S)-1-oxo-1-((1-(3,4,5-trifluorobenzyl)-1H-imidazol-4-yl)amino)propan-2-yl)piperidin-3-yl)pyridine 1-oxide]	25 nM	11 nM	–
C[C@H](C(=O)Nc1cn(Cc2cc(F)cc(F)c2)cn1)N1CCC(F)(F)[C@@H](c2c[nH]c(=O)c(CO)c2)C1 (single isomer, unassigned) [Compound 72]	20 nM	12 nM	–
C[C@H](C(=O)Nc1nc2ccccc2s1)N1CCC(F)(F)[C@@H](c2cc[n+]([O-])cc2)C1 (single isomer, unassigned) [Compound 85]	100 nM	28 nM	–
